Data on 3 compounds can be found in US6936632B2, “Fused pyrrole compounds, pharmaceutical agents containing the same, and the use thereof” (Merckle GmbH, priority 2000, dated 2005).

Consider `NS(=O)(=O)c1ccc(-c2cc3n(c2-c2ccc(F)cc2)CCC3)cc1`, for which the melting point (usually the temperature of the solid-liquid transition) was found to be 206.9 °C.

The compound `CS(=O)(=O)c1ccc(-c2c(-c3ccc(F)cc3)cn3c2CCC3)cc1` had a melting point of 191 °C.

Compound `Cc1c(C(F)(C(F)(F)F)C(F)(F)F)c(-c2ccc(S(N)(=O)=O)cc2)c2n1CCC2` returned a melting point of 199.6 °C.
